# Assay results: patent US20260193293A1, “PEPTIDES CAPABLE OF INHIBITING PROTEIN-PROTEIN INTERACTIONS AT GABAB1A SUBUNIT AND USES THEREOF” (UNIVERSITY OF COPENHAGEN, priority 2022, published 2026)
# Non-standard residues stand in square brackets, D forms with d. Residues, ends and D or L forms follow the SMILES beside them. NMeW = CN[C@@H](Cc1c[nH]c2ccccc12)C(=O)O; Cya = N[C@@H](CS(=O)(=O)O)C(=O)O; NMeF = CN[C@@H](Cc1ccccc1)C(=O)O; NMeI = CC[C@H](C)[C@H](NC)C(=O)O; NMeA = CN[C@@H](C)C(=O)O; Sar = CNCC(=O)O
# Biological target: Sushi domains (SD1/2) protein
# Experiment: Fluorescence polarization (FP) competition assay with AJAP-1probe, calculated Ki
# Assay type: binding
# Conditions: Table 8, Ala-, D-amino acids and N-methylation scans of AJAP-1WT; read-out: Ki (nM) mean ± SEM
# Method in brief: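 Competition against 25 nM TAMRA-labelled peptide probe binding SD1/2, in PBS pH 7.4 with 1% BSA at rt, read at 530/580 nm. IC50 from sigmoidal dose-response fits, at least triplicate; Ki calculated from IC50 using probe Kd from saturation binding.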
row,SMILES,Ki [nM]
1,CC[C@H](C)[C@H](NC(=O)[C@H](Cc1ccccc1)N(C)C(=O)[C@H](CCC(=O)O)NC(=O)[C@@H](NC(=O)[C@H](CCC(=O)O)NC(C)=O)[C@@H](C)O)C(=O)N[C@@H](C)C(=O)N[C@@H](Cc1c[nH]c2ccccc12)C(=O)NCC(=O)N1CCC[C@H]1C(=O)N[C@H](C(=O)NCC(=O)N[C@@H](CC(=O)O)C(=O)N[C@@H](CCC(=O)O)C(=O)N[C@@H](CC(=O)O)C(N)=O)[C@@H](C)O [ETE(N-Me-F)IAWGPTGDED] (Ac-ETE[NMeF]IAWGPTGDED-NH2),252 ± 5
2,CC[C@H](C)[C@H](NC(=O)[C@H](C)NC(=O)[C@H](CCC(=O)O)NC(=O)[C@@H](NC(=O)[C@H](CCC(=O)O)NC(C)=O)[C@@H](C)O)C(=O)N[C@@H](C)C(=O)N[C@@H](Cc1c[nH]c2ccccc12)C(=O)NCC(=O)N1CCC[C@H]1C(=O)N[C@H](C(=O)NCC(=O)N[C@@H](CC(=O)O)C(=O)N[C@@H](CCC(=O)O)C(=O)N[C@@H](CC(=O)O)C(N)=O)[C@@H](C)O [ETEAIAWGPTGDED] (Ac-ETEAIAWGPTGDED-NH2),688 ± 11
3,CC[C@H](C)[C@@H](C(=O)N[C@@H](C)C(=O)N[C@@H](Cc1c[nH]c2ccccc12)C(=O)NCC(=O)N1CCC[C@H]1C(=O)N[C@H](C(=O)NCC(=O)N[C@@H](CC(=O)O)C(=O)N[C@@H](CCC(=O)O)C(=O)N[C@@H](CC(=O)O)C(N)=O)[C@@H](C)O)N(C)C(=O)[C@H](Cc1ccccc1)NC(=O)[C@H](CCC(=O)O)NC(=O)[C@@H](NC(=O)[C@H](CCC(=O)O)NC(C)=O)[C@@H](C)O [ETEF(N-Me-I)AWGPTGDED] (Ac-ETEF[NMeI]AWGPTGDED-NH2),33 ± 1
4,CC[C@H](C)[C@H](NC(=O)[C@H](Cc1ccccc1)NC(=O)[C@H](CCC(=O)O)NC(=O)[C@@H](NC(=O)[C@H](CCC(=O)O)NC(C)=O)[C@@H](C)O)C(=O)N[C@@H](C)C(=O)N(C)[C@@H](Cc1c[nH]c2ccccc12)C(=O)NCC(=O)N1CCC[C@H]1C(=O)N[C@H](C(=O)NCC(=O)N[C@@H](CC(=O)O)C(=O)N[C@@H](CCC(=O)O)C(=O)N[C@@H](CC(=O)O)C(N)=O)[C@@H](C)O [ETEFIA(N-Me-W)GPTGDED] (Ac-ETEFIA[NMeW]GPTGDED-NH2),46 ± 2
5,CC[C@H](C)[C@H](NC(=O)[C@H](Cc1ccccc1)NC(=O)[C@H](CCC(=O)O)NC(=O)[C@@H](NC(=O)[C@H](CCC(=O)O)NC(C)=O)[C@@H](C)O)C(=O)N[C@@H](C)C(=O)N[C@@H](Cc1c[nH]c2ccccc12)C(=O)NCC(=O)N[C@@H](C)C(=O)N[C@H](C(=O)NCC(=O)N[C@@H](CC(=O)O)C(=O)N[C@@H](CCC(=O)O)C(=O)N[C@@H](CC(=O)O)C(N)=O)[C@@H](C)O [ETEFIAWGATGDED] (Ac-ETEFIAWGATGDED-NH2),291 ± 6
6,CC[C@H](C)[C@H](NC(=O)[C@H](Cc1ccccc1)NC(=O)[C@H](CCC(=O)O)NC(=O)[C@@H](NC(=O)[C@H](CCC(=O)O)NC(C)=O)[C@@H](C)O)C(=O)N[C@@H](C)C(=O)N[C@@H](Cc1c[nH]c2ccccc12)C(=O)NCC(=O)N1CCC[C@H]1C(=O)N[C@@H](C)C(=O)NCC(=O)N[C@@H](CC(=O)O)C(=O)N[C@@H](CCC(=O)O)C(=O)N[C@@H](CC(=O)O)C(N)=O [ETEFIAWGPAGDED] (Ac-ETEFIAWGPAGDED-NH2),89 ± 2
7,CC[C@H](C)[C@H](NC(=O)[C@H](Cc1ccccc1)NC(=O)[C@H](CCC(=O)O)NC(=O)[C@@H](NC(=O)[C@H](CCC(=O)O)NC(C)=O)[C@@H](C)O)C(=O)N[C@@H](C)C(=O)N[C@@H](Cc1c[nH]c2ccccc12)C(=O)NCC(=O)N1CCC[C@H]1C(=O)N[C@H](C(=O)NCC(=O)N[C@@H](CC(=O)O)C(=O)N[C@@H](CCC(=O)O)C(=O)N[C@@H](CC(=O)O)C(N)=O)[C@@H](C)CC [ETEFIAWGPIGDED] (Ac-ETEFIAWGPIGDED-NH2),48 ± 2
8,CC[C@H](C)[C@H](NC(=O)[C@H](Cc1ccccc1)NC(=O)[C@H](CCC(=O)O)NC(=O)[C@@H](NC(=O)[C@H](CCC(=O)O)NC(C)=O)[C@@H](C)O)C(=O)N[C@@H](C)C(=O)N[C@@H](Cc1c[nH]c2ccccc12)C(=O)NCC(=O)N1CCC[C@H]1C(=O)N[C@H](C(=O)NCC(=O)N[C@@H](C)C(=O)N[C@@H](CCC(=O)O)C(=O)N[C@@H](CC(=O)O)C(N)=O)[C@@H](C)O [ETEFIAWGPTGAED] (Ac-ETEFIAWGPTGAED-NH2),50 ± 1

# Same assay, conditions: Table 8, in μM; read-out: Ki (nM) mean ± SEM
row,SMILES,Ki [nM]
1,CC(=O)N[C@@H](CCC(=O)O)C(=O)N[C@H](C(=O)N[C@@H](CCC(=O)O)C(=O)N[C@@H](Cc1ccccc1)C(=O)N[C@@H](C)C(=O)N[C@@H](C)C(=O)N[C@@H](Cc1c[nH]c2ccccc12)C(=O)NCC(=O)N1CCC[C@H]1C(=O)N[C@H](C(=O)NCC(=O)N[C@@H](CC(=O)O)C(=O)N[C@@H](CCC(=O)O)C(=O)N[C@@H](CC(=O)O)C(N)=O)[C@@H](C)O)[C@@H](C)O [ETEFAAWGPTGDED] (Ac-ETEFAAWGPTGDED-NH2),> 6250
2,CC[C@H](C)[C@H](NC(=O)[C@H](Cc1ccccc1)NC(=O)[C@H](CCC(=O)O)NC(=O)[C@@H](NC(=O)[C@H](CCC(=O)O)NC(C)=O)[C@@H](C)O)C(=O)N(C)[C@@H](C)C(=O)N[C@@H](Cc1c[nH]c2ccccc12)C(=O)NCC(=O)N1CCC[C@H]1C(=O)N[C@H](C(=O)NCC(=O)N[C@@H](CC(=O)O)C(=O)N[C@@H](CCC(=O)O)C(=O)N[C@@H](CC(=O)O)C(N)=O)[C@@H](C)O [ETEFI(N-Me-A)WGPTGDED] (Ac-ETEFI[NMeA]WGPTGDED-NH2),> 6250
3,CC[C@H](C)[C@H](NC(=O)[C@H](Cc1ccccc1)NC(=O)[C@H](CCC(=O)O)NC(=O)[C@@H](NC(=O)[C@H](CCC(=O)O)NC(C)=O)[C@@H](C)O)C(=O)N[C@@H](C)C(=O)N[C@@H](C)C(=O)NCC(=O)N1CCC[C@H]1C(=O)N[C@H](C(=O)NCC(=O)N[C@@H](CC(=O)O)C(=O)N[C@@H](CCC(=O)O)C(=O)N[C@@H](CC(=O)O)C(N)=O)[C@@H](C)O [ETEFIAAGPTGDED] (Ac-ETEFIAAGPTGDED-NH2),> 6250
4,CC[C@H](C)[C@H](NC(=O)[C@H](Cc1ccccc1)NC(=O)[C@H](CCC(=O)O)NC(=O)[C@@H](NC(=O)[C@H](CCC(=O)O)NC(C)=O)[C@@H](C)O)C(=O)N[C@@H](C)C(=O)N[C@@H](Cc1c[nH]c2ccccc12)C(=O)N(C)CC(=O)N1CCC[C@H]1C(=O)N[C@H](C(=O)NCC(=O)N[C@@H](CC(=O)O)C(=O)N[C@@H](CCC(=O)O)C(=O)N[C@@H](CC(=O)O)C(N)=O)[C@@H](C)O [ETEFIAW(N-Me-G)PTGDED] (Ac-ETEFIAW[Sar]PTGDED-NH2),> 6250

# Same assay, conditions: Table 11, deep mutational scanning validation variants of AJAP-1WT; read-out: Ki (nM) mean ± SEM
row,SMILES,Ki [nM]
1,CC[C@H](C)[C@H](NC(=O)[C@H](Cc1ccccc1)NC(=O)[C@H](CCC(=O)O)NC(=O)[C@@H](NC(=O)[C@H](CCC(=O)O)NC(C)=O)[C@@H](C)O)C(=O)N[C@@H](C)C(=O)N[C@@H](Cc1c[nH]c2ccccc12)C(=O)NCC(=O)N1CCC[C@H]1C(=O)N[C@@H](Cc1ccccc1)C(=O)NCC(=O)N[C@@H](CC(=O)O)C(=O)N[C@@H](CCC(=O)O)C(=O)N[C@@H](CC(=O)O)C(N)=O [ETEFIAWGPFGDED] (Ac-ETEFIAWGPFGDED-NH2),40 ± 1
2,CC[C@H](C)[C@H](NC(=O)[C@H](Cc1ccccc1)NC(=O)[C@H](CCC(=O)O)NC(=O)[C@@H](NC(=O)[C@H](CCC(=O)O)NC(C)=O)[C@@H](C)O)C(=O)N[C@@H](C)C(=O)N[C@@H](Cc1c[nH]c2ccccc12)C(=O)NCC(=O)N1CCC[C@H]1C(=O)N[C@@H](Cc1c[nH]cn1)C(=O)NCC(=O)N[C@@H](CC(=O)O)C(=O)N[C@@H](CCC(=O)O)C(=O)N[C@@H](CC(=O)O)C(N)=O [ETEFIAWGPHGDED] (Ac-ETEFIAWGPHGDED-NH2),38 ± 1
3,CC[C@H](C)[C@H](NC(=O)[C@H](Cc1ccccc1)NC(=O)[C@H](CCC(=O)O)NC(=O)[C@@H](NC(=O)[C@H](CCC(=O)O)NC(C)=O)[C@@H](C)O)C(=O)N[C@@H](C)C(=O)N[C@@H](Cc1c[nH]c2ccccc12)C(=O)NCC(=O)N1CCC[C@H]1C(=O)N[C@@H](CO)C(=O)NCC(=O)N[C@@H](CC(=O)O)C(=O)N[C@@H](CCC(=O)O)C(=O)N[C@@H](CC(=O)O)C(N)=O [ETEFIAWGPSGDED] (Ac-ETEFIAWGPSGDED-NH2),32 ± 1
4,CC[C@H](C)[C@H](NC(=O)[C@H](Cc1ccccc1)NC(=O)[C@H](CCC(=O)O)NC(=O)[C@@H](NC(=O)[C@H](CCC(=O)O)NC(C)=O)[C@@H](C)O)C(=O)N[C@@H](C)C(=O)N[C@@H](Cc1c[nH]c2ccccc12)C(=O)NCC(=O)N1CCC[C@H]1C(=O)N[C@H](C(=O)N[C@@H](Cc1ccccc1)C(=O)N[C@@H](CC(=O)O)C(=O)N[C@@H](CCC(=O)O)C(=O)N[C@@H](CC(=O)O)C(N)=O)[C@@H](C)O [ETEFIAWGPTFDED],46 ± 2
5,CC[C@H](C)[C@H](NC(=O)[C@H](Cc1ccccc1)NC(=O)[C@H](CCC(=O)O)NC(=O)[C@@H](NC(=O)[C@H](CCC(=O)O)NC(C)=O)[C@@H](C)O)C(=O)N[C@@H](C)C(=O)N[C@@H](Cc1c[nH]c2ccccc12)C(=O)NCC(=O)N1CCC[C@H]1C(=O)N[C@H](C(=O)NCC(=O)N[C@@H](Cc1c[nH]cn1)C(=O)N[C@@H](CCC(=O)O)C(=O)N[C@@H](CC(=O)O)C(N)=O)[C@@H](C)O [ETEFIAWGPTGHED] (Ac-ETEFIAWGPTGHED-NH2),60 ± 4
6,CC[C@H](C)[C@H](NC(=O)[C@H](Cc1ccccc1)NC(=O)[C@H](CCC(=O)O)NC(=O)[C@@H](NC(=O)[C@H](CCC(=O)O)NC(C)=O)[C@@H](C)O)C(=O)N[C@@H](C)C(=O)N[C@@H](Cc1c[nH]c2ccccc12)C(=O)NCC(=O)N1CCC[C@H]1C(=O)N[C@H](C(=O)NCC(=O)N[C@@H](Cc1ccc(O)cc1)C(=O)N[C@@H](CCC(=O)O)C(=O)N[C@@H](CC(=O)O)C(N)=O)[C@@H](C)O [ETEFIAWGPTGYED] (Ac-ETEFIAWGPTGYED-NH2),41 ± 1

# Same assay, conditions: Table 16, ncAAs incorporated peptides; read-out: Ki (nM) mean ± SEM
row,SMILES,Ki [nM]
1,"CC[C@H](C)[C@H](NC(=O)[C@H](Cc1ccccc1)NC(=O)[C@H](CCC(=O)O)NC(=O)[C@@H](NC(=O)[C@H](CCC(=O)O)NC(C)=O)[C@@H](C)O)C(=O)N[C@@H](CS(=O)(=O)O)C(=O)N[C@@H](Cc1c[nH]c2ccccc12)C(=O)NCC(=O)N1CCC[C@H]1C(=O)N[C@H](C(=O)NCC(=O)N[C@@H](CC(=O)O)C(=O)N[C@@H](CCC(=O)O)C(=O)N[C@@H](CC(=O)O)C(N)=O)[C@@H](C)O [ETEFI(Cya)WGPTGDED, Ac-ETEFI(Cya)WGPTGDED-NH2] (Ac-ETEFI[Cya]WGPTGDED-NH2)",12 ± 0.3

# Same assay, conditions: purified peptides; read-out: Ki
row,SMILES,Ki [nM]
1,"CC[C@H](C)[C@H](NC(=O)[C@H](Cc1ccccc1)NC(=O)[C@H](CCC(=O)O)NC(=O)[C@@H](NC(=O)[C@H](CCC(=O)O)NC(C)=O)[C@@H](C)O)C(=O)N[C@@H](CS(=O)(=O)O)C(=O)N[C@@H](Cc1c[nH]c2ccccc12)C(=O)NCC(=O)N1CCC[C@H]1C(=O)N[C@H](C(=O)NCC(=O)N[C@@H](CC(=O)O)C(=O)N[C@@H](CCC(=O)O)C(=O)N[C@@H](CC(=O)O)C(N)=O)[C@@H](C)O [ETEFI(Cya)WGPTGDED, Ac-ETEFI(Cya)WGPTGDED-NH2] (Ac-ETEFI[Cya]WGPTGDED-NH2)",11.8
